Laboratory results as given in patent US20140309210A1, “INDAZOLE COMPOUNDS, COMPOSITIONS AND METHODS OF USE THEREOF” (Genentech, Inc., priority 2011, published 2014).

Molecular target: T1, purified ITK (Invitrogen PV3875) (Homo sapiens, UniProt Q08881)
T1 construct: purchased Invitrogen PV3875
T1 sequence (Q08881 1-620): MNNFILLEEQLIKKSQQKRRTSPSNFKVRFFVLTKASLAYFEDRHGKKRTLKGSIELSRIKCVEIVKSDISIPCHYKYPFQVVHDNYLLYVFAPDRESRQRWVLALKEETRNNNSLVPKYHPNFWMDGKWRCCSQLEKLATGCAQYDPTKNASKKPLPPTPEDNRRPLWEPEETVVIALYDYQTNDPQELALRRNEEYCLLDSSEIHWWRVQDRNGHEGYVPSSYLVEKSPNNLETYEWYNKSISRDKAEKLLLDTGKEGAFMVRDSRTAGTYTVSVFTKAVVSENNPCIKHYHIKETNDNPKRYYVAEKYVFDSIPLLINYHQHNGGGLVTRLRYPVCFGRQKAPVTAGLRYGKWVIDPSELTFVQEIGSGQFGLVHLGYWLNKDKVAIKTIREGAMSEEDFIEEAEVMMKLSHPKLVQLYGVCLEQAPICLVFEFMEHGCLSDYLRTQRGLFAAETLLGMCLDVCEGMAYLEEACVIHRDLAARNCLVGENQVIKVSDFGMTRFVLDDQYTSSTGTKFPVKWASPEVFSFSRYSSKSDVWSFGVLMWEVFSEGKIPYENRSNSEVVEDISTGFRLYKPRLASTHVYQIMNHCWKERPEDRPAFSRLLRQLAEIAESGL
Test: ITK peptide phosphorylation assay (Caliper LabChip or LCMS)
Format: biochemical
Outline: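 Ki values come from Morrison quadratic fits of activity versus inhibitor concentration, adjusted for ATP-competitive inhibition against ATP/Km,app. Substrate and phosphopeptide from purified ITK reactions were resolved either microfluidically (Caliper, EDTA stop) or by LC-MS MRM (TCA stop).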

[1] = Table 2, Examples 1-140, class symbols
[2] = Table 3, specific values for certain examples

Structure (SMILES) | Ki [1] [nM] | Ki (Table 1, Examples 141-279) [nM] | Ki [2] [nM]
O=C(O)c1cccc(Cn2cc(NC(=O)c3n[nH]c4cc(-c5cn[nH]c5)ccc34)cn2)c1 [Example 46, 3-(4-{[6-(1H-Pyrazol-4-yl)-1H-indazole-3-carbonyl]-amino}-pyrazol-1-ylmethyl)-benzoic acid] | 0.01 to 1 | – | –
Nc1cc(Cn2cc(NC(=O)c3n[nH]c4cc(-c5cn[nH]c5)ccc34)cn2)ccn1 [Example 28, 6-(1H-Pyrazol-4-yl)-1H-indazole-3-carboxylic acid [1-(2-amino-pyridin-4-ylmethyl)-1H-pyrazol-4-yl]-amide] | 1 to 100 | – | –
O=C(Nc1cnn(Cc2ccccc2)c1)c1n[nH]c2cc(-c3cncc(Cl)c3)ccc12 [Example 207, N-(1-benzylpyrazol-4-yl)-6-(5-chloro-3-pyridyl)-1H-indazole-3-carboxamide] | – | 9.39 | –
CN(C)CC(c1ccccc1)n1cc(NC(=O)c2n[nH]c3ccccc23)cn1 (centres unmarked) [Example 275, N-[1-[2-(dimethylamino)-1-phenyl-ethyl]pyrazol-4-yl]-1H-indazole-3-carboxamide] | – | 7.83 | –
COc1cccc(Cn2cc(NC(=O)c3n[nH]c4ccccc34)cn2)c1 [Example 67, N-(1-(3-methoxybenzyl)-1H-pyrazol-4-yl)-1H-indazole-3-carboxamide] | 1 to 100 | – | –
O=C(Nc1cnn(Cc2ccccc2)c1)c1n[nH]c2cc(-c3ccnnc3)ccc12 [Example 205, N-(1-benzylpyrazol-4-yl)-6-pyridazin-4 yl-1H-indazole-3 carboxamide] | – | 131 | –
O=C(Nc1cnn(Cc2cccc(CNCC3CC3)c2)c1)c1n[nH]c2ccccc12 [Example 95, N-(1-(3-((cyclopropylmethylamino)methyl)benzyl)-1H-pyrazol-4-yl)-1H-indazole-3-carboxamide] | 1 to 100 | – | –
N#Cc1cccc(Cn2cc(NC(=O)c3n[nH]c4ccc(F)cc34)cn2)c1 [Example 7, N-(1-(3-cyanobenzyl)-1H-pyrazol-4-yl)-5-fluoro-1H-indazole-3-carboxamide] | 1 to 100 | – | –
CN(C)CCNCc1cccc(Cn2cc(NC(=O)c3n[nH]c4ccccc34)cn2)c1 [Example 102, N-(1-(3-((2-(dimethylamino)ethylamino)methyl)benzyl)-1H-pyrazol-4-yl)-1H-indazole-3-carboxamide] | 1 to 100 | – | –
O=C(Nc1cnn(Cc2ccccc2)c1)c1n[nH]c2cc(-c3cn[nH]c3)ccc12 [Example 181, N-(1-benzylpyrazol-4-yl)-6-(1H-pyrazol-4-yl)-1H-indazole-3-carboxamide] | – | 1.07 | –
COC(=O)c1cccc(Cn2cc(NC(=O)c3n[nH]c4cc(-c5cn[nH]c5)ccc34)cn2)c1 [Example 10, 3-(4-{[6-(1H-Pyrazol-4-yl)-1H-indazole-3-carbonyl]-amino}-pyrazol-1-ylmethyl)-benzoic acid methyl ester] | 1 to 100 | – | –
O=C(Nc1cnn(Cc2ccncc2)c1)c1n[nH]c2cc(-c3cn[nH]c3)ccc12 [Example 218, 6-(1H-pyrazol-4-yl)-N-[1-(4-pyridylmethyl)py-razol-4-yl]-1H-indazole-3-carboxamide] | – | 3.19 | –
CC(C)(c1cccc(C#N)c1)n1cc(NC(=O)c2n[nH]c3ccccc23)cn1 [Example 77, N-(1-(2-(3-Cyanophenyl)propan-2-yl)-1H-pyrazol-4-yl)-1H-indazole-3-carboxamide] | > 100 | – | 307
Cc1cc2c(C(=O)Nc3cnn(Cc4cccc(C#N)c4)c3)n[nH]c2cc1-c1cccnc1 [Example 149, N-[1-[(3-cyanophenyl)meth-yl]pyrazol-4-yl]-5-methyl-6-(3-pyridyl)-1H-indazole-3-carboxamide] | – | 71.1 | –
N#Cc1cccc(Cn2cc(NC(=O)c3n[nH]c4ccc(NC5CCCCC5)cc34)cn2)c1 [Example 195, N-[1-[(3-cyanophenyl)meth-yl]pyrazol-4-yl]-5-(cyclohexylamino)-1H-indazole-3-carboxamide] | – | 42.4 | –
Cc1ccc2[nH]nc(C(=O)Nc3cnn(Cc4cccc(C#N)c4)c3)c2c1 [Example 2, N-(1-(3-cyanobenzyl)-1H-pyrazol-4-yl)-5-methyl-1H-indazole-3-carboxamide] | 1 to 100 | – | 16.5
CNCCC(c1ccccc1)n1cc(NC(=O)c2n[nH]c3ccccc23)cn1 (centres unmarked) [Example 263, N-[1-[3-(methylamino)-1-phenyl-propyl]pyrazol-4-yl]-1H-indazole-3-carboxamide] | – | 5.14 | –
O=C(Nc1cnn(CC2CC3CCC2C3)c1)c1n[nH]c2cc(-c3cn[nH]c3)ccc12 (centres unmarked) [Example 251, N-[1-(norbornan-2-ylmethyl)pyrazol-4-yl]-6-(1H-pyrazol-4-yl)-1H-indazole-3-carboxamide] | – | 5 | –

Structure (SMILES) | Ki [1] [nM] | Ki (Table 1, Examples 141-279) [nM] | Ki [2] [nM]
Cc1cncc(-c2ccc3c(C(=O)Nc4cnn(Cc5cccc(C#N)c5)c4)n[nH]c3c2)c1 [Example 199, N-[1-[(3-cyanophenyl)meth-yl]pyrazol-4-yl]-6-(5-methyl-3-pyridyl)-1H-indazole-3-carboxamide] | – | 8.41 | –
O=C(Nc1cnn(Cc2cscn2)c1)c1n[nH]c2cc(-c3cccnc3)ccc12 [Example 34, 6-(3-pyridyl)-N-[1-(thiazol-4-ylmethyl)pyrazol-4-yl]-1H-indazole-3-carboxamide] | 1 to 100 | – | –
N#Cc1cccc(Cn2cc(NC(=O)c3n[nH]c4cc(NC5CCNCC5)ccc34)cn2)c1 [Example 173, N-[1-[(3-cyanophenyl)meth-yl]pyrazol-4-yl]-6-(4-piperidylamino)-1H-indazole-3-carboxamide] | – | 1200 | –
O=C(Nc1cnn(Cc2cccc3cccnc23)c1)c1n[nH]c2cc(-c3cn[nH]c3)ccc12 [Example 9, 6-(1H-Pyrazol-4-yl)-1H-indazole-3-carboxylic acid (1-quinolin-8-ylmethyl-1H-pyrazol-4-yl)-amide] | 1 to 100 | – | 7.42
O=C(Nc1cnn(Cc2cccc(CN3CCC3)c2)c1)c1n[nH]c2ccccc12 [Example 91, N-(1-(3-(azetidin-1-ylmethyl)benzyl)-1H-pyrazol-4-yl)-1H-indazole-3-carboxamide] | 1 to 100 | – | –
O=C(Nc1cnn(Cc2ccccc2C(F)(F)F)c1)c1n[nH]c2ccccc12 [Example 60, N-(1-(2-(trifluoromethyl)benzyl)-1H-pyrazol-4-yl)-1H-indazole-3-carboxamide] | > 100 | – | –
CN(C)CCC(c1ccccc1)n1cc(NC(=O)c2n[nH]c3cc(-c4cn[nH]c4)cnc23)cn1 (centres unmarked) [Example 278, N-[1-[3-(dimethylamino)-1-phenyl-propyl]pyrazol-4-yl]-6-(1H-pyrazol-4-yl)-1H-pyrazolo[4,3-b]pyridine-3-carboxamide] | – | 1.29 | –
Cc1cccc(C(CCN(C)C)n2cc(NC(=O)c3n[nH]c4cc(-c5cn[nH]c5)ccc34)cn2)c1 (centres unmarked) [Example 246, N-[1-[3-(dimethylamino)-1-(m-tolyl)propyl]py-razol-4-yl]-6-(1H-pyrazol-4-yl)-1H-indazole-3-carboxamide] | – | 0.0734 | –
CN(C)CCC(c1ccccc1)n1cc(NC(=O)c2n[nH]c3cc(-c4cn[nH]c4)cnc23)cn1 (centres unmarked) [Example 279, N-[1-[3-(dimethylamino)-1-phenyl-propyl]pyrazol-4-yl]-6-(1H-pyrazol-4-yl)-1H pyrazolo[4,3-b]pyridine-3-carboxamide] | – | 36.7 | –
CCn1cc(NC(=O)c2n[nH]c3cc(-c4cn[nH]c4)ccc23)cn1 [Example 83, N-(1-ethyl-1H-pyrazol-4-yl)-6-(1H-pyrazol-4-yl)-1H-indazole-3-carboxamide] | 1 to 100 | – | –
COc1cncc(-c2ccc3c(C(=O)Nc4cnn(C(CCN(C)C)c5ccccc5)c4)n[nH]c3c2)c1 (centres unmarked) [Example 212, N-[1-[3-(dimethylamino)-1-phenyl-propyl]pyrazol-4-yl]-6-(5-methoxy-3-pyridyl)-1H-indazole-3-carboxamide] | – | 1.64 | –
O=C(Nc1cnn(Cc2c[nH]cn2)c1)c1n[nH]c2cc(-c3cn[nH]c3)ccc12 [Example 167, N-[1-(1H-imidazol-4-ylmethyl)pyrazol-4-yl]-6-(1H-pyrazol-4-yl)-1H-indazole-3-carboxamide] | – | 7.68 | –
O=C(Nc1cnn(Cc2ccc(CN3CCC3)cc2)c1)c1n[nH]c2ccccc12 [Example 103, N-(1-(4-(azetidin-1-ylmethyl)benzyl)-1H-pyrazol-4-yl)-1H-indazole-3-carboxamide] | 1 to 100 | – | –
O=C(Nc1cnn(CC2COCCO2)c1)c1n[nH]c2cc(-c3cn[nH]c3)ccc12 (centres unmarked) [Example 237] | – | 3.7 | –
Cc1cc2c(C(=O)Nc3cnn(Cc4cccc(C#N)c4)c3)n[nH]c2cc1-c1cn[nH]c1 [Example 151, N-[1-[(3-cyanophenyl)meth-yl]pyrazol-4-yl]-5-methyl-6-(1H-pyrazol-4-yl)-1H-indazole-3-carboxamide] | – | 16.4 | –
COc1cncc(-c2ccc3c(C(=O)Nc4cnn(C(CN5CCN(C)CC5)c5cccnc5)c4)n[nH]c3c2)c1 (centres unmarked) [Example 234, 6-(5-methoxy-3-pyridyl)-N-[1-[2-(4-methylpiperazin-1-yl)-1-(3-pyridyl)ethyl]py-razol-4-yl]-1H-indazole-3-carboxamide] | – | 5.38 | –
O=C(Nc1cnn(CC2CC2)c1)c1n[nH]c2cc(-c3cn[nH]c3)ccc12 [Example 240, N-[1-(cyclopropylmeth-yl)pyrazol-4-yl]-6-(1H-pyrazol-4-yl)-1H-indazole-3-carboxamide] | – | 5.33 | –
